Measurements published in PubChem BioAssay AID248 (DTP/NCI, 2004).
Where “and” joins values, the source holds several entries; their conditions need not be identical. Identical values can stand only once. Inconclusive results and toxic doses are left out.

System: L1210 leukemia ip in BDF1 mice, survival T/C
Test: NCI In Vivo Anticancer Drug Screen. Data for tumor model L1210 Leukemia (intraperitoneal) in B6D2F1 (BDF1) mice
Conditions: endpoint: mean survival time, higher = longer survival
In short: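 Transplanted-tumor mice were given test agent; controls received vehicle only. Survival readings from the two groups were divided (treated over control).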

[1] = dose: 100.0 mg/kg/injection, schedule: Q01DX009 (ip), vehicle: Klucel (hydroxypropylcellulose) (HPC)
[2] = dose: 200.0 mg/kg/injection, schedule: Q01DX009 (ip), vehicle: Klucel (hydroxypropylcellulose) (HPC)
[3] = dose: 400.0 mg/kg/injection, schedule: Q01DX009 (ip), vehicle: Klucel (hydroxypropylcellulose) (HPC)
[4] = dose: 100.0 mg/kg/injection, schedule: Q04DX003 (ip), vehicle: Klucel (hydroxypropylcellulose) (HPC)
[5] = dose: 200.0 mg/kg/injection, schedule: Q04DX003 (ip), vehicle: Klucel (hydroxypropylcellulose) (HPC)
[6] = dose: 400.0 mg/kg/injection, schedule: Q04DX003 (ip), vehicle: Klucel (hydroxypropylcellulose) (HPC)
[7] = dose: 100.0 mg/kg/injection, schedule: Q04DX003 (ip), vehicle: other
[8] = dose: 200.0 mg/kg/injection, schedule: Q04DX003 (ip), vehicle: other
[9] = dose: 400.0 mg/kg/injection, schedule: Q04DX003 (ip), vehicle: other

Structure (SMILES): O=C(Nc1ccc(F)cc1)Nc1ccc(Nc2ccccc2)cc1
- T/C (dose: 100.0 mg/kg/injection, schedule: Q01DX001 (ip), vehicle: carboxymethylcellulose (CMC)): 91 % of control
- T/C (dose: 100.0 mg/kg/injection, schedule: Q01DX009 (ip), vehicle: carboxymethylcellulose (CMC)): 97 % of control
- T/C (dose: 100.0 mg/kg/injection, schedule: Q04DX002 (ip), vehicle: carboxymethylcellulose (CMC)): 93 % of control and 86 % of control
- T/C (dose: 100.0 mg/kg/injection, schedule: Q04DX003 (ip), vehicle: carboxymethylcellulose (CMC)): 88 % of control
- T/C (dose: 200.0 mg/kg/injection, schedule: Q01DX001 (ip), vehicle: carboxymethylcellulose (CMC)): 91 % of control
- T/C (dose: 200.0 mg/kg/injection, schedule: Q01DX009 (ip), vehicle: carboxymethylcellulose (CMC)): 87 % of control
- T/C (dose: 200.0 mg/kg/injection, schedule: Q04DX002 (ip), vehicle: carboxymethylcellulose (CMC)): 98 % of control and 86 % of control
- T/C (dose: 200.0 mg/kg/injection, schedule: Q04DX003 (ip), vehicle: carboxymethylcellulose (CMC)): 93 % of control
- T/C (dose: 400.0 mg/kg/injection, schedule: Q01DX001 (ip), vehicle: carboxymethylcellulose (CMC)): 91 % of control
- T/C (dose: 400.0 mg/kg/injection, schedule: Q01DX009 (ip), vehicle: carboxymethylcellulose (CMC)): 92 % of control and 87 % of control
- T/C (dose: 400.0 mg/kg/injection, schedule: Q04DX002 (ip), vehicle: carboxymethylcellulose (CMC)): 88 % of control
- T/C (dose: 400.0 mg/kg/injection, schedule: Q04DX003 (ip), vehicle: carboxymethylcellulose (CMC)): 88 % of control

Structure (SMILES): Cc1cc2c(C(C)C)c(O)c(O)c(C=O)c2c(O)c1-c1c(C)cc2c(C(C)C)c(O)c(O)c(C=O)c2c1O
- T/C (dose: 0.25 mg/kg/injection, schedule: Q01DX009 (ip), vehicle: saline): 105 % of control
- T/C (dose: 0.5 mg/kg/injection, schedule: Q01DX009 (ip), vehicle: saline): 110 % of control
- T/C (dose: 1.0 mg/kg/injection, schedule: Q01DX009 (ip), vehicle: saline): 106 % of control
- T/C (dose: 2.0 mg/kg/injection, schedule: Q01DX009 (ip), vehicle: saline): 106 % of control
- T/C (dose: 4.0 mg/kg/injection, schedule: Q01DX009 (ip), vehicle: saline): 108 % of control
- T/C (dose: 8.0 mg/kg/injection, schedule: Q01DX009 (ip), vehicle: saline): 101 % of control

Structure (SMILES): CS(=O)(=O)Nc1ccc(Nc2c3ccccc3nc3cc([N+](=O)[O-])ccc23)cc1
- T/C (dose: 0.02 mg/kg/injection, schedule: Q01DX009 (ip), vehicle: saline): 118 % of control
- T/C (dose: 0.1 mg/kg/injection, schedule: Q01DX009 (ip), vehicle: acetone): 119 % of control
- T/C (dose: 0.15 mg/kg/injection, schedule: Q01DX009 (ip), vehicle: acetone): 112 % of control
- T/C (dose: 0.16 mg/kg/injection, schedule: Q01DX009 (ip), vehicle: saline): 153 % of control
- T/C (dose: 0.6 mg/kg/injection, schedule: Q01DX001 (ip), vehicle: acetone): 116 % of control
- T/C (dose: 0.82 mg/kg/injection, schedule: Q01DX009 (ip), vehicle: acetone): 151 % of control
- T/C (dose: 1.25 mg/kg/injection, schedule: Q01DX009 (ip), vehicle: saline): 164 % of control
- T/C (dose: 1.25 mg/kg/injection, schedule: Q01DX009 (sc), vehicle: Klucel (hydroxypropylcellulose) (HPC)): 113 % of control
- T/C (dose: 1.56 mg/kg/injection, schedule: Q04DX003 (ip), vehicle: saline): 107 % of control
- T/C (dose: 2.5 mg/kg/injection, schedule: Q01DX009 (ip), vehicle: saline): 156 % of control and 220 % of control
- T/C (dose: 2.5 mg/kg/injection, schedule: Q01DX009 (sc), vehicle: Klucel (hydroxypropylcellulose) (HPC)): 118 % of control
- T/C (dose: 3.12 mg/kg/injection, schedule: Q04DX003 (ip), vehicle: saline): 107 % of control
- T/C (dose: 3.13 mg/kg/injection, schedule: Q01DX001 (ip), vehicle: saline): 151 % of control
- T/C (dose: 5.0 mg/kg/injection, schedule: Q01DX009 (ip), vehicle: saline): 184 % of control
- T/C (dose: 6.25 mg/kg/injection, schedule: Q01DX001 (ip), vehicle: saline): 159 % of control
- T/C (dose: 6.25 mg/kg/injection, schedule: Q04DX003 (ip), vehicle: saline): 107 % of control
- T/C (dose: 10.0 mg/kg/injection, schedule: Q01DX009 (sc), vehicle: Klucel (hydroxypropylcellulose) (HPC)): 195 % of control
- T/C (dose: 12.5 mg/kg/injection, schedule: Q01DX001 (ip), vehicle: saline): 161 % of control
- T/C (dose: 25.0 mg/kg/injection, schedule: Q01DX001 (ip), vehicle: saline): 240 % of control
- T/C (dose: 100.0 mg/kg/injection, schedule: Q01DX001 (ip), vehicle: saline): 168 % of control

Structure (SMILES): CCOC(=O)c1ccc(OCCOc2ccc(C(C)(C)CC)cc2)cc1
- T/C (dose: 100.0 mg/kg/injection, schedule: Q04DX003 (ip), vehicle: saline with Tween-80): 102 % of control
- T/C (dose: 200.0 mg/kg/injection, schedule: Q04DX003 (ip), vehicle: saline with Tween-80): 112 % of control
- T/C (dose: 400.0 mg/kg/injection, schedule: Q04DX003 (ip), vehicle: saline with Tween-80): 108 % of control

Structure (SMILES): CC(C)(N)COC(=O)c1ccc([N+](=O)[O-])cc1
- T/C (dose: 50.0 mg/kg/injection, schedule: Q01DX009 (ip), vehicle: acetone): 101 % of control
- T/C (dose: 100.0 mg/kg/injection, schedule: Q01DX009 (ip), vehicle: acetone): 101 % of control
- T/C (dose: 200.0 mg/kg/injection, schedule: Q01DX009 (ip), vehicle: acetone): 95 % of control

Structure (SMILES): S=c1nc2ccccn2c(=S)n1-c1ccccn1
- T/C (dose: 100.0 mg/kg/injection, schedule: Q01DX001 (ip), vehicle: saline with Tween-80): 106 % of control
- T/C (dose: 200.0 mg/kg/injection, schedule: Q01DX001 (ip), vehicle: saline with Tween-80): 100 % of control

Structure (SMILES): CCCc1nc2c(=O)n(C3OC(CO)C(O)C3O)cnc2o1 (stereo unspecified)
- T/C (dose: 100.0 mg/kg/injection, schedule: Q01DX005 (ip), vehicle: saline): 95 % of control
- T/C (dose: 200.0 mg/kg/injection, schedule: Q01DX005 (ip), vehicle: saline): 91 % of control

Structure (SMILES): c1cc(C2=NCCN2)ccc1C1=NCCN1
- T/C (dose: 15.0 mg/kg/injection, schedule: Q01DX Z (ip), vehicle: saline): 104 % of control
- T/C (dose: 30.0 mg/kg/injection, schedule: Q01DX Z (ip), vehicle: saline): 102 % of control
- T/C (dose: 60.0 mg/kg/injection, schedule: Q01DX Z (ip), vehicle: saline): 106 % of control
- T/C (dose: 120.0 mg/kg/injection, schedule: Q01DX Z (ip), vehicle: saline): 101 % of control

Structure (SMILES): C(=N\Nc1nc2ccccc2s1)/c1ccncc1
- T/C [1]: 106 % of control
- T/C [2]: 96 % of control
- T/C [3]: 98 % of control

Structure (SMILES): c1ccc(N=NC(N=Nc2ccccc2)=P(c2ccccc2)(c2ccccc2)c2ccccc2)cc1
- T/C [1]: 97 % of control
- T/C [2]: 108 % of control

Structure (SMILES): CC(OC(=O)Oc1ccccc1)c1ccccc1 (stereo unspecified)
- T/C [4]: 98 % of control
- T/C [5]: 107 % of control
- T/C [6]: 98 % of control

Structure (SMILES): Cc1ccc(Cl)cc1NC(=O)c1ccccc1C(=O)O
- T/C [1]: 102 % of control
- T/C [4]: 102 % of control
- T/C [2]: 97 % of control
- T/C [5]: 101 % of control
- T/C [3]: 96 % of control
- T/C [6]: 102 % of control

Structure (SMILES): CCOC(=O)CNc1ccc(F)cc1Cl
- T/C (dose: 100.0 mg/kg/injection, schedule: Q04DX002 (ip), vehicle: Klucel (hydroxypropylcellulose) (HPC)): 105 % of control
- T/C (dose: 200.0 mg/kg/injection, schedule: Q04DX002 (ip), vehicle: Klucel (hydroxypropylcellulose) (HPC)): 101 % of control
- T/C (dose: 400.0 mg/kg/injection, schedule: Q04DX002 (ip), vehicle: Klucel (hydroxypropylcellulose) (HPC)): 105 % of control

Structure (SMILES): COc1cc2c(cc1OC(C)=O)C=CCCC2=O
- T/C (dose: 100.0 mg/kg/injection, schedule: Q01DX009 (ip), vehicle: other): 97 % of control
- T/C [7]: 105 % of control
- T/C (dose: 200.0 mg/kg/injection, schedule: Q01DX009 (ip), vehicle: other): 90 % of control
- T/C [8]: 105 % of control
- T/C (dose: 400.0 mg/kg/injection, schedule: Q01DX009 (ip), vehicle: other): 97 % of control
- T/C [9]: 104 % of control

Structure (SMILES): NS(=O)(=O)c1ccc(N/N=c2\c(=O)c(=O)c3ccccc3c2=O)cc1
- T/C (dose: 100.0 mg/kg/injection, schedule: Q01DX001 (ip), vehicle: other): 101 % of control
- T/C [7]: 95 % of control
- T/C (dose: 200.0 mg/kg/injection, schedule: Q01DX001 (ip), vehicle: other): 90 % of control
- T/C [8]: 108 % of control
- T/C (dose: 400.0 mg/kg/injection, schedule: Q01DX001 (ip), vehicle: other): 93 % of control
- T/C [9]: 90 % of control
